From patent US4699921A, “Pharmaceuticals containing prostaglandin I2” (Mitsubishi Yuka Pharmaceutical Co., Ltd., priority 1984, dated 1987) come the findings set out here.

One test relates to gastric acid secretion. In words: Antiulcer effect (2): rat gastric acid inhibiting effect (pylorus ligature). The class given is in vivo, male Wistar rat. The settings on record: subcutaneous, 100 μg/kg, 4 hours after pylorus ligature; for Amount of gastric acid secreted: solvent 73.6. The protocol: Male wistar strain rats (weighing 250-280 g) were fasted for 18 hours subjected to peritoneotomy under ether anesthesia for ligature of pylorus, and after 4 hours under abstinence from food and water, gastric juice was sampled. The gastric juice was centrifuged at 3000 rpm for 10 minutes, and then the amount, pH and acidity of the gastric juice were measured. The acidity was measured by titration by means of an automatic titrating device (Toa Denpa Kogyo) with a 0.1N NaOH to pH 7.0 and calculating according to the following formula: [formula]
The gastric juice secretion inhibition percentage was calculated according to the following formula: [formula] A: Amount of gastric acid excreted in Control group B: Amount of gastric acid excreted in Drug group
The drugs to be tested were adminsistered subcutaneously immediately after pylorus ligature.

The test system of test [1] is Human platelet aggregation (ADP induced). In words: Human platelet aggregation inhibiting effect (in vitro). The class given is cell-based. The settings on record: human PRP, ADP 2-10 μM, 37° C., one minute preincubation, read-out: Platelet aggregation inhibiting ratio (IC50). The protocol: Platelet aggregation inhibiting effect
Bloods were sampled from healthy voluers (22-34 years old) with no administration of drug for 2 weeks or more early in the morning when they were hungry. By use of an injector filled with 5 ml of 3.8% sodium citrate solution, 50 ml of blood was sampled, immediately stirred by turning upside down and centrifuged at 200×g for 15 minutes. The supernatant was separated as the PRP (platelet rich plasma) and the residue further subjected to centrigugation at 2000×g for 15 minutes, followed by recovery of the supernatant as PPP (poor platelet plasma) which was provided for use in the experiment.
PRP (250 μ) was placed in a cuvette, 5 μof an 1% ethanol solution of the compound of the present invention or an 1% ethanol solution was added, and incubation was carried out at 37° C. for one minute. Then, an aggregation inducing agent (ADP) was added and the process of aggregation was recorded by Aggregometer (Sienco Co.). As the concentration of ADP, the minimum concentrations of ADP (2-10 μM) to give the maximum aggregation for respective platelets were employed. The inhibition percentage of platelet aggregation was calculated by the following formula:
Inhibition percentage=(A-B)/A×100
A: Maximum aggregation ratio during addition of solvent (1% ethanol solution)
B: Maximum aggregation ratio during addition of the compound of the present invention.
The platelet aggregation inhibiting effects of the compounds of the present invention are shown in terms of IC50 values in Table 6.

Another test deals with gastric mucosa damage. In words: Antiulcer effect (1): inhibition of hydrochloric acid induced gastric mucosa damage. In kind it is in vivo, male SD rat. As to conditions: oral, 25 μg/kg, 30 minutes before 1 ml of 0.6N hydrochloric acid. How it is done:
Male SD-strain rats (weighing 220-255 g) were fasted for 20 hours (water was given ad libitum) and, after further abstinence from food and water for 4 hours, the compound of the present invention was administered orally, followed further by oral administration of 1 ml of 0.6N hydrochloric acid 30 minutes later. One hour after administration of hydrochloric acid, the stomach was enucleated under chloroform anesthesia. The fluid in the stomach was discharged and 7.5 ml of a 1% formalin solution was injected into the stomach to fix the gastric mucosa. Then, the stomach was dissected along the greater curvature and the length of the gastric mucosa damage was measured under a steroscopic microscope. The compound of the present invention was dissolved in 5% ethanol-95% physiological salt solution and administered at a dose of 25 μg/kg in a volume of 5 ml/kg.
The antiulcer effect of the compound of the present invention was calculated by the following formula: [formula] l: length of gastric mucosa damage in the group to which the compound of the present invention is administered;
lo: length of gastric mucosa damage in the group of non-administration of drug.

Another test has as its system blood pressure. In words: Hypotensive effect in anesthetized rats. In kind it is in vivo, male Wistar rat. The settings on record: intravenous, 10 μg/kg. The protocol:
Male wistar strain rats (weighing 240-290 g) were anesthetized by intraperitoneal administration of 50 mg/kg of sodium pentobarbital, and blood pressures were measured. The compound of the present invention was administered intravenously as a solution dissolved in 10 ethanol- 90% physiological salt solution. The hypotensive effect is expressed by the percent change of average blood pressure after intravenous administration (relative to that before administration).

Another test deals with right femoral artery. In words: Vasodilative effect (perfusion pressure of femoral artery in anesthetized dogs). In kind it is in vivo, dog. The settings on record: intraarterial, 100 μg/kg. How it is done: Female and male adult dogs were anesthetized by intraveneous administeration of 30 mg/kg of sodium pentobarbital and fixed on their back positions. The right femoral artery was perfused at constant flow with the dog's own blood by means of a peristaltic pump (Harvard Co.). The perfusion pressure was measured with an electromanometer and systemic blood pressure was measured in the other femoral artery with a pressure transducer. As an anticoagulant, 500 U/kg of heparin sodium was intravenously administered.
The compound of the present invention was dissolved in 10% ethanol-90% physiological salt solution and administered into arterial blood through a thick rubber tube provided in the perfusion circuit. The vasodilative effect of the compound of the present invention is expressed by the change ratio of perfusion pressure after administration into the artery.

Each structure is given as a SMILES string. pIC50: −log10 of the molar value. Where two headings read alike, the source gives them in different places.

Turning to `CCCC(C)C[C@H](O)/C=C/[C@H]1[C@H]2CC(C=CCCC(=O)O)=C[C@H]2C[C@H]1O` (mixture of isomers) [Compound K, 3-(4'-carboxy-1'-butenyl)-6(S)-(3'(S)-hydroxy-5'(RS)-methyl-trans-1'-octenyl)-7(R)-hydroxy-(1S,5S)-cis-bicyclo[3.3.0]oct-2-ene], in the test with gastric acid secretion, the “Gastric acid secretion Inhibition” value was 70.5% and the “Amount of gastric acid secreted” value turned out to be 21.7 mEq/l. In test [1], the pIC50 was 8.70.
The matching figures for `CCCCC(C)C[C@H](O)/C=C/[C@H]1[C@H]2CC(C=CCCC(=O)O)=C[C@H]2C[C@H]1O` (mixture of isomers) [Compound M, 3-(4'-carboxy-1'-butenyl)-6(S)-(3'(S)-hydroxy-5'(RS)-methyl-trans-1'-nonenyl)-7(R)-hydroxy-(1S,5S)-cis-bicyclo[3.3.0]-oct-2-ene]: 73.5%, 19.5 mEq/l and 8.40.
With `CCCCC[C@H](O)/C=C/[C@@H]1[C@H]2CC(C=CCCC(=O)O)=C[C@H]2C[C@H]1O` [Compound A], the pIC50 in test [1] (Platelet) was 7.85.
Regarding `O=C(O)CCC=CC1=C[C@H]2C[C@@H](O)[C@H](/C=C/[C@@H](O)C3CCCC3)[C@H]2C1` [Compound B], in test [1] (Platelet), the pIC50 was 8.15.
With `CC#CCC(C)[C@H](O)/C=C/[C@@H]1[C@H]2CC(C=CCCC(=O)O)=C[C@H]2C[C@H]1O` (some centres unmarked) [Compound C], in test [1] (Platelet), the pIC50 was 9.10.
On the same count and under the same terms, for `CC(C)=CCC[C@@H](C)C[C@H](O)/C=C/[C@@H]1[C@H]2CC(C=CCCC(=O)O)=C[C@H]2C[C@H]1O` [Compound D] the value was 7.70.
As to `O=C(O)CCC=CC1=C[C@H]2C[C@@H](O)[C@H](/C=C/[C@@H](O)C3CCCCC3)[C@H]2C1` [Compound E], the pIC50 in test [1] (Platelet) was 8.30.
Regarding `CCC#CCC(C)[C@H](O)/C=C/[C@@H]1[C@H]2CC(C=CCCC(=O)O)=C[C@H]2C[C@H]1O` (stereo partly drawn) [Compound F, 3-(4'-carboxy-1'-butenyl)-6(S)-(3'(S)-hydroxy-4'(RS)-methyl-trans-1'-nonen-6'-ynyl)-7(R)-hydroxy-(1S,5S)-cis-bicyclo[3.3.0]oct-2-ene], in the test on gastric acid secretion, the “Gastric acid secretion Inhibition” value came out at 81.8% and the “Amount of gastric acid secreted” value came to 13.4 mEq/l. Further, the pIC50 in test [1] (Platelet) is 8.40.
Consider `CCC#CC(C)C[C@H](O)/C=C/[C@@H]1[C@H]2CC(C=CCCC(=O)O)=C[C@H]2C[C@H]1O` (some centres unmarked) [Compound G], for which the pIC50 in test [1] (Platelet) is 9.22.
For the molecule `CCCCCC(C)[C@H](O)/C=C/[C@@H]1[C@H]2CC(C=CCCC(=O)O)=C[C@H]2C[C@H]1O` (stereo partly drawn) [Compound H, 3-(4'-carboxy-1'-butenyl)-6(S)-(3'(S)-hydroxy-4'(RS)-methyl-trans-1'-nonenyl-7(R)-hydroxy-1S,5S)-cis-bicyclo[3.3.0]oct-2-ene], in the test on gastric acid secretion, the “Gastric acid secretion Inhibition” value is given as 89.9% and the “Amount of gastric acid secreted” value is recorded as 7.4 mEq/l. The pIC50 in test [1] (Platelet) was 8.10.
The matching figures for `O=C(O)CCC=CC1=C[C@H]2C[C@@H](O)[C@H](/C=C/[C@@H](O)CCc3ccccc3)[C@H]2C1` [Compound I, 3-(4'-carboxy-1'-butenyl)-6(S)-(3'(S)-hydroxy-5'-phenyl-trans-1'-pentenyl)-7(R)-hydroxy-(1S,5S)-cis-bicyclo[3.3.0]oct-2-ene]: 73.5%, 19.5 mEq/l and 7.10.
The matching figures for `CCCCC(C)(C)[C@H](O)/C=C/[C@@H]1[C@H]2CC(C=CCCC(=O)O)=C[C@H]2C[C@H]1O` [Compound J, 3-(4'-carboxy-1'-butenyl)-6(S)-(3'(S)-hydroxy-4',4'-dimethyl-trans-1'-octenyl)-7(R)-hydroxy-(1S,5S)-cis-bicyclo[3.3.0]oct-2-ene]: 18.1%, 60.3 mEq/l and 6.70.
The matching figures for `CC(C1CCCCC1)[C@H](O)/C=C/[C@@H]1[C@H]2CC(C=CCCC(=O)O)=C[C@H]2C[C@H]1O` (some centres unmarked) [Compound L]: 36.8%, 46.5 mEq/l and 6.52.
With `O=C(O)CCCC=C1C[C@H]2C[C@@H](O)[C@H](/C=C/[C@@H](O)C3CCCC3)[C@H]2C1` [OP-41483], the “Inhibition of gastric mucosa damage” value with gastric mucosa damage is listed as -28.3%. Also, in test [1] (Platelet), the pIC50 is 8.05. In addition, in the test with blood pressure, the “Percent change of average blood pressure” value is recorded as -39%. For the same molecule, the Perfusion pressure change with right femoral artery is on record as -16%.
As for `CCCCC[C@H](O)/C=C/[C@H]1[C@H](O)CC(=O)[C@@H]1C/C=C\CCCC(=O)O` [PGE2], in the test on gastric mucosa damage, the “Inhibition of gastric mucosa damage” value was 61.1%.
